Structures can show the parent of a compound that is named as a salt.
Assays:
Human preadipocytes = assay: Fat breakdown stimulation: triglyceride accumulation in adipocytes (oil red staining, colorimetry); type: cell-based; settings: for Triglyceride accumulation: relative to untreated adipocytes (100), 50 μM test substance, 5 days incubation; for effect of stimulating fat metabolism: conclusion from Table 2, 50 μM, 5 days
Method: Human preadipocytes (available from TOYOBO Co., LTD.) were seeded on a 96-well microplate and were incubated at 37° C. and 5% CO2 using human preadipocyte growth medium TAGM (available from TOYOBO Co., LTD.) while renewing the medium every two days. The growth medium was changed to human adipocyte differentiation medium TADM (available from TOYOBO Co., LTD.), and incubation was carried out for 5 days. Subsequently, the medium was changed to an evaluation medium as shown in Table 1 below without or with 50 μM of any of the test substances described below. The incubation was carried out for 5 days.
The adipocytes were washed with Dulbecco's PBS (−) three times and were formalin fixed. The adipocytes were stained with an oil red/water-isopropanol (1/1) solution, and were extracted with isopropanol. Triglyceride accumulated in the adipocytes was determined by a colorimetry method.

[1] = Stability of carnitine derivatives in aqueous solution at 80° C. (RPHPLC); type: physicochemical; settings: 0.3% by mass in PBS(-) with 5% 1,2-hexanediol, pH 7, 80° C.; changes with time; FIG. 2
Method: The test substances were each dissolved in Dulbecco's PBS (−) containing 5% by mass of 1,2-hexanediol, followed by adding 1N NaOH to adjust the pH to 7. Consequently, 0.3% by mass solutions of the test substances were prepared. The solutions were tightly encapsulated in glass vials and were temperature controlled at 80° C. in a water bath.
After the lapse of a predetermined time, the solutions were collected and were analyzed by RPHPLC (column: Shodex C8-5B, eluting solution: 70% acetonitrile, flow rate: 1.0 ml/min). The remaining carnitine derivatives originating from the test substances were determined from the UV absorption intensity at 210 nm.

[2] = Percutaneous absorption through three-dimensional human skin model, two-chamber test; type: in vitro ADME; settings: 0.3% by mass solution, pH 7, 35° C., after 24 hours; compared with L-carnitine palmitate; FIG. 1
Method: The test substances were each dissolved in Dulbecco's PBS (−) containing 5% by mass of 1,2-hexanediol, followed by adding 1N NaOH to adjust the pH to 7. Consequently, 0.3% by mass solutions of the test substances were prepared. Two chambers were separated through a three-dimensional model of human skin tissue (TESTSKIN™ LSD-d, available from TOYOBO CO., LTD.). 3 ml of each test substance solution was placed into a chamber on the epidermis side, and 3 ml of Dulbecco's PBS (−) was placed into a chamber on the dermis side. They were stirred with magnetic stirrers at 35° C. for 24 hours.
After the lapse of 24 hours, 1 ml of the buffer solution in the dermis-side chamber was collected, and 0.5 ml of the solution collected was analyzed to determine free carnitine. The remaining portion of the solution collected was adjusted to pH 11 with 1N NaOH, was encapsulated in a 1.5 ml screw vial, and was allowed to stand at 80° C. for 6 hours, followed by cooling. The pH of the solution was adjusted to 7 with 1N HCl, whereby all acylcarnitine derivatives were decomposed to free carnitine. These solutions were each combined with 0.02 ml of 1N hydrochloric acid, 0.1 ml of 1.6% by mass 1-aminoanthracene-in acetone solution and 0.1 ml of 16% by mass aqueous EDC (1-ethyl-3-(3-dimethylaminopropyl)carbodiimide hydrochloride) solution, followed by sufficient stirring. The solutions were allowed to stand still at room temperature for 20 minutes and were washed with 3 ml of diethylether. The aqueous phases were filtered and were analyzed by reversed-phase high performance liquid chromatography (RPHPLC) (column: Phenomenex Synergi-RP, eluting solution: 45% acetonitrile, flow rate: 1.0 ml/min) to determine peak intensities assigned to 1-aminoanthracene-modified carnitine (excitation wavelength: 248 nm, fluorescent wavelength: 418 nm). The concentrations of carnitine derivatives and free carnitine originating from the test substances in the solution in the dermis-side chamber were calculated and determined from the aforesaid peak intensities. […]

CCCCCCCCCCCCCCCC(=O)O[C@H](CC(=O)[O-])C[N+](C)(C)C.Cl [L-carnitine palmitate hydrochloride, reference compound]
Triglyceride accumulation (Human preadipocytes): 87

CCCCCCC(CCCC)C(=O)OC(CC(=O)[O-])C[N+](C)(C)C [L-carnitine 2-butyloctanoate hydrochloride]
residual ratio of carnitine derivatives in aqueous solution [1]: higher residual ratio and were exceptionally more stable in aqueous solutions than the acylcarnitines having a straight-chain acyl group
effect of stimulating fat metabolism (Human preadipocytes): good effects of stimulating fat metabolism
Triglyceride accumulation (Human preadipocytes): 90
L-carnitine concentration (carnitine derivatives and free carnitine) passed to the dermis-side chamber [2]: comparable or higher L-carnitine concentrations than that obtained with L-carnitine palmitate

C[N+](C)(C)C[C@H](O)CC(=O)[O-].Cl [L-carnitine hydrochloride, reference compound]
Triglyceride accumulation (Human preadipocytes): 98

CCCCCCCCCCCCCCC(C)C(=O)OC(CC(=O)[O-])C[N+](C)(C)C [L-carnitine 2-methylpalmitate hydrochloride]
residual ratio of carnitine derivatives in aqueous solution [1]: higher residual ratio and were exceptionally more stable in aqueous solutions than the acylcarnitines having a straight-chain acyl group
effect of stimulating fat metabolism (Human preadipocytes): good effects of stimulating fat metabolism
Triglyceride accumulation (Human preadipocytes): 89
L-carnitine concentration (carnitine derivatives and free carnitine) passed to the dermis-side chamber [2]: comparable or higher L-carnitine concentrations than that obtained with L-carnitine palmitate

CCCCCCCCC(CCCCCC)C(=O)OC(CC(=O)[O-])C[N+](C)(C)C [L-carnitine 2-hexyldecanoate hydrochloride]
residual ratio of carnitine derivatives in aqueous solution [1]: higher residual ratio and were exceptionally more stable in aqueous solutions than the acylcarnitines having a straight-chain acyl group
effect of stimulating fat metabolism (Human preadipocytes): good effects of stimulating fat metabolism
Triglyceride accumulation (Human preadipocytes): 89
L-carnitine concentration (carnitine derivatives and free carnitine) passed to the dermis-side chamber [2]: comparable or higher L-carnitine concentrations than that obtained with L-carnitine palmitate

— patent US7842726B2, “Carnitine derivative, salt thereof, external skin preparation and cosmetic material” (Showa Denko K.K., priority 2005, dated 2010)
